Molecules are shown by their SMILES.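 Cells were grown in 96-well plates and exposed to each compound for 48 hours at five concentrations; endpoints were interpolated linearly between bracketing concentrations, or set to the highest concentration if not reached. The concentration for 50% growth inhibition is given as GI50.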 The source made the active and inactive calls. No stated cut-off is given here; in the data, active = GI50 up to about 1.1 µM and inactive = higher.

Some test systems named below: SK-MEL-2; Malme-3M; HT-29; OVCAR-4; PC-3; IGROV-1; HCT-15; NCI-H23; EKVX; NCI-H460; SF-539; Hs-578T; ACHN; SN12C; MOLT-4; HCT-116; SF-268; MDA-MB-435; A498; SR.
Test in all cases: NCI anticancer screen, dose series, 48 h

Take `N#CCN(CC#N)C1CC=CCC1N(CC#N)CC#N` (stereo unspecified): the GI50 in the test with SK-MEL-2, in the test with Malme-3M, with HT-29, in the test with OVCAR-4, with PC-3 and with IGROV-1 was > 100 µM (inactive) throughout. Also, the GI50 with HCT-15 was > 100 µM; in the test on NCI-H23 it was > 100 µM (inactive); with EKVX it was > 100 µM (inactive); with NCI-H460 it was > 100 µM (inactive); in the test on SF-539, > 100 µM (inactive); in the test with Hs-578T it was > 100 µM (inactive). Moreover, the GI50 in the test on ACHN, in the test with SN12C, with MOLT-4, in the test with HCT-116, with SF-268 and in the test on MDA-MB-435 was > 100 µM (inactive) throughout.

On to `Cc1ccc(-c2c(C#N)c(-c3ccc([N+](=O)[O-])cc3)c(C#N)c(=O)n2NS(=O)(=O)c2ccc(C)cc2)cc1`, for which the GI50 was 62.4 µM (inactive) with SK-MEL-2; 96.4 µM (inactive) with Malme-3M; 67.8 µM (inactive) in the test with A498; 56.4 µM (inactive) in the test with HT-29; 41.5 µM (inactive) in the test with OVCAR-4; 42.8 µM (inactive) in the test with PC-3. Moreover, the GI50 in the test on IGROV-1 is 24.7 µM (inactive); in the test with HCT-15, 41.6 µM; in the test with EKVX, 47.5 µM (inactive); in the test on NCI-H460 it was 39.8 µM (inactive); with SF-539, 38.1 µM (inactive); with Hs-578T, 30.7 µM (inactive). Also, the GI50 in the test on ACHN is 51.9 µM (inactive); with SN12C, 50 µM (inactive); in the test with MOLT-4, 19.8 µM (inactive); in the test with HCT-116, 36.6 µM (inactive); in the test with SF-268, 79.3 µM (inactive); with MDA-MB-435, 86.9 µM (inactive).

Take `CC(=O)NCC1OC2COC(c3ccccc3)OC2C(NC(=O)c2ccccc2)C1OC(=O)c1ccccc1` (stereo unspecified): the GI50 is > 100 µM (inactive) in the test with SK-MEL-2; > 100 µM (inactive) in the test with Malme-3M; 44.5 µM (inactive) in the test on A498; > 100 µM (inactive) in the test on HT-29; > 100 µM (inactive) in the test with OVCAR-4; 33.3 µM (inactive) in the test on PC-3. Besides, the GI50 is > 100 µM in the test on HCT-15; > 100 µM (inactive) with NCI-H23; > 100 µM (inactive) in the test with EKVX; > 100 µM (inactive) in the test with NCI-H460; > 100 µM (inactive) in the test on SF-539; > 100 µM (inactive) in the test on Hs-578T. Besides, the GI50 was > 100 µM (inactive) with ACHN; 60.3 µM (inactive) in the test on SN12C; 86.7 µM (inactive) in the test with MOLT-4; > 100 µM (inactive) with HCT-116; > 100 µM (inactive) in the test on SF-268; > 100 µM (inactive) in the test with MDA-MB-435.

As for `COC(=NCCC1=CCCCC1)OC`, the GI50 in the test on SK-MEL-2 is 87.7 µM (inactive); in the test with Malme-3M, 31.2 µM (inactive); in the test on A498, > 100 µM (inactive); with HT-29, 18.2 µM (inactive); in the test on OVCAR-4, > 100 µM (inactive); with PC-3 it was 85.7 µM (inactive). Moreover, the GI50 is 32.8 µM (inactive) in the test with IGROV-1; 82 µM with HCT-15; 58.6 µM (inactive) in the test on NCI-H23; 69 µM (inactive) with EKVX; 57.1 µM (inactive) in the test on NCI-H460; > 100 µM (inactive) in the test with Hs-578T. Moreover, the GI50 in the test on ACHN was > 100 µM (inactive); with MOLT-4, 52.2 µM (inactive); in the test with HCT-116 it was 32.8 µM (inactive); with SF-268, > 100 µM (inactive); in the test with MDA-MB-435 it was 71.6 µM (inactive).

Consider `Cc1nc(-c2cc3cc([N+](=O)[O-])ccc3oc2=O)cs1`, for which the GI50 in the test on SK-MEL-2 is > 100 µM (inactive); with HT-29, > 100 µM (inactive); with OVCAR-4, > 100 µM (inactive); in the test with PC-3, > 100 µM (inactive); in the test on IGROV-1, > 100 µM (inactive); in the test with HCT-15, > 100 µM. In addition, the GI50 in the test with EKVX, in the test on NCI-H460, in the test with SF-539, in the test on Hs-578T, in the test with ACHN and with SN12C was > 100 µM (inactive) in each case. For the same compound, the GI50 was > 100 µM (inactive) with MOLT-4; > 100 µM (inactive) with HCT-116; 71.3 µM (inactive) in the test with SR; > 100 µM (inactive) in the test on SF-268; > 100 µM (inactive) in the test with MDA-MB-435.

`CN(C)c1ccc(/C=C2\N=C(N/N=C/c3ccc(N(C)C)cc3)NC2=O)cc1`: the GI50 is > 100 µM (inactive) in the test on SK-MEL-2; > 100 µM (inactive) in the test with Malme-3M; 26.8 µM (inactive) with A498; 42.7 µM (inactive) in the test with HT-29; > 100 µM (inactive) in the test on OVCAR-4; > 100 µM (inactive) in the test with PC-3. In addition, the GI50 was 38.7 µM (inactive) in the test on IGROV-1; 30.8 µM with HCT-15; > 100 µM (inactive) with NCI-H23; > 100 µM (inactive) in the test with EKVX; 51.5 µM (inactive) with NCI-H460; > 100 µM (inactive) with Hs-578T. Moreover, the GI50 in the test with ACHN was > 100 µM (inactive); with SN12C, > 100 µM (inactive); in the test on MOLT-4 it was 92 µM (inactive); in the test on HCT-116, > 100 µM (inactive); in the test with SF-268, 80.4 µM (inactive); with MDA-MB-435, > 100 µM (inactive).

Regarding `CCC1(c2ccc(N3C(=O)c4cccc5cc([N+](=O)[O-])cc(c45)C3=O)cc2)CCC(=O)NC1=O` (stereo unspecified), the GI50 in the test with SK-MEL-2 was > 100 µM (inactive); with Malme-3M, 20.1 µM (inactive); with A498, 10.1 µM (inactive); in the test on HT-29, 20.5 µM (inactive); in the test with OVCAR-4, 12.6 µM (inactive); with PC-3, 20.9 µM (inactive). In addition, the GI50 is 5.4 µM (inactive) with IGROV-1; 31 µM in the test on HCT-15; 25.5 µM (inactive) with NCI-H23; 11.7 µM (inactive) in the test with EKVX; 6.35 µM (inactive) in the test on NCI-H460; > 10 µM (inactive) with SF-539. In addition, the GI50 in the test on Hs-578T is 16.1 µM (inactive); in the test with ACHN, 11.5 µM (inactive); in the test on SN12C, 6.05 µM (inactive); with MOLT-4, 11.9 µM (inactive); in the test with HCT-116, 5.42 µM (inactive); in the test with SF-268 it was 15.1 µM (inactive). Besides, the GI50 in the test with MDA-MB-435 was 24.3 µM (inactive).

As for `C[C@H]1O[C@@H](c2c(O)ccc3ccccc23)C[C@@H](N(C)C)C1O` (stereo partly specified), the GI50 in the test on SK-MEL-2 was > 100 µM (inactive); with Malme-3M it was 48 µM (inactive); in the test with A498, 51.9 µM (inactive); with HT-29 it was 54.6 µM (inactive); with OVCAR-4 it was > 100 µM (inactive); in the test with PC-3, 48.3 µM (inactive). Further, the GI50 with IGROV-1 is 73.6 µM (inactive); with HCT-15 it was > 100 µM; in the test with NCI-H23, > 100 µM (inactive); with EKVX it was > 100 µM (inactive); in the test with NCI-H460, 52.7 µM (inactive); with SF-539, > 100 µM (inactive). For the same compound, the GI50 in the test on Hs-578T is 80.4 µM (inactive); in the test on ACHN, > 100 µM (inactive); with SN12C, > 100 µM (inactive); in the test with HCT-116, > 100 µM (inactive); in the test with SF-268, > 100 µM (inactive); in the test on MDA-MB-435 it was > 100 µM (inactive).

For `Clc1ccc(C(c2ccc(Cl)cc2)c2cncnc2)cc1`, the GI50 is 19.1 µM (inactive) in the test on Malme-3M; 15.1 µM (inactive) in the test with HT-29; 15.2 µM (inactive) in the test with OVCAR-4; 14.2 µM (inactive) in the test with PC-3; 16 µM (inactive) in the test on IGROV-1; 19.6 µM with HCT-15. In addition, the GI50 in the test with NCI-H23 is 15.9 µM (inactive); in the test on EKVX, > 10 µM (inactive); with NCI-H460 it was 17.6 µM (inactive); with Hs-578T, 18.3 µM (inactive); in the test on ACHN, 19.2 µM (inactive); with SN12C it was 18.4 µM (inactive). For the same compound, the GI50 is 20.6 µM (inactive) in the test with MOLT-4; 13.9 µM (inactive) in the test with HCT-116; 31.8 µM (inactive) in the test with SR; 17.8 µM (inactive) in the test on SF-268; 13.7 µM (inactive) with MDA-MB-435.

Turning to `CN1N=C(c2ccncc2)OC1c1cccc(C(F)(F)F)c1` (stereo unspecified), the GI50 in the test with SK-MEL-2, in the test on A498, with HT-29, in the test on OVCAR-4, in the test on PC-3 and with IGROV-1 was > 100 µM (inactive) each time. Besides, the GI50 is > 100 µM in the test on HCT-15; > 100 µM (inactive) with NCI-H23; > 100 µM (inactive) in the test with EKVX; > 100 µM (inactive) in the test with NCI-H460; 27.5 µM (inactive) in the test on SF-539; > 100 µM (inactive) with Hs-578T. In addition, the GI50 is > 100 µM (inactive) in the test on ACHN; > 100 µM (inactive) in the test on SN12C; > 100 µM (inactive) in the test with MOLT-4; 67.1 µM (inactive) in the test on HCT-116; > 100 µM (inactive) in the test on SF-268; > 100 µM (inactive) in the test with MDA-MB-435.

As to `CC(C)(Br)C(=O)C(Br)Br`, the GI50 in the test on SK-MEL-2 is 13 µM (inactive); in the test with Malme-3M it was 2.01 µM (inactive); with A498 it was > 39.8 µM (inactive); in the test on HT-29 it was 8.17 µM (inactive); with OVCAR-4, 5.09 µM (inactive); in the test with PC-3, 5.4 µM (inactive). In addition, the GI50 in the test on IGROV-1 was 8.22 µM (inactive); with NCI-H23, 4.61 µM (inactive); in the test with EKVX, 13.8 µM (inactive); with NCI-H460 it was 18.1 µM (inactive); in the test on SF-539, > 33.2 µM (inactive); in the test with Hs-578T, 6.89 µM (inactive). For the same compound, the GI50 is 10.5 µM (inactive) in the test on ACHN; > 24.4 µM (inactive) in the test with SN12C; 1.67 µM (inactive) in the test on MOLT-4; 4.26 µM (inactive) with HCT-116; 14 µM (inactive) with SF-268; 5.58 µM (inactive) in the test on MDA-MB-435.
